Measurements: US20230310374A1, “COMPOSITIONS AND METHODS FOR TREATING HEADACHE OR FACIAL PAIN” (priority 2021, published 2023)
pEC50: −log10 of the molar value. Where two headings read alike, the source gives them in different places.

How the values were obtained:
Human 5-HT1B receptor = target: T1, Human 5-HT1B receptor (Homo sapiens, UniProt P28222); test: Hit Hunter cAMP secondary messenger assay, Gi agonist mode; assay type: cell-based; details: for Curve Top (% activation) / Emax: relative to 5-HT MAX control
T1 construct: host or cells: CHO-K1 (hamster), stably transfected; cAMP Hunter cell line
Description: Methods: cAMP Secondary Messenger Pathway Assay Method.
Hit Hunter® cAMP assays were used to monitor the activation of a GPCR via Gi and Gs secondary messenger signaling in a homogenous, non-imaging assay format using DiscoverX's Enzyme Fragment Complementation (EFC) with β-galactosidase (β-Gal) as the functional reporter. The enzyme is split into two complementary portions: EA for Enzyme Acceptor and ED for Enzyme Donor. ED is fused to cAMP and in the assay competes with cAMP generated by cells for binding to a cAMP-specific antibody. Active β-Gal is formed by complementation of exogenous EA to any unbound EDcAMP.
cAMP Hunter cell lines were expanded from freezer stocks according to standard procedures. Human 5-HT1B receptor-mediated cAMP signaling was evaluated in stably transfected hamster-derived CHO-K1 cells. Cells were seeded in a total volume of 20 μL into white walled, 384-well microplates and incubated at 37° C. overnight. cAMP modulation was determined using the DiscoverX HitHunter cAMP XS+ assay.
For Gi agonist determination, cells were incubated with sample in the presence of 15 mM forskolin to induce response. Media was aspirated from cells and replaced with 10 μL HBSS/10 mM Hepes. Intermediate dilution of sample stocks was performed to generate 4× sample in assay buffer. 5 μL of 4× sample plus 5 μL of 4× forskolin was added to cells and incubated at 37° C. for 30 minutes. Final assay vehicle concentration was 1%. After compound incubation, assay signal was generated through incubation with 20 μL cAMP XS+ED/CL lysis cocktail for one hour followed by incubation with 20 μL cAMP XS+EA reagent for three hours at room temperature. Microplates were read following signal generation with a PerkinElmer Envision™ instrument for chemiluminescent signal detection.
Compound activity was analyzed using CBIS data analysis suite (ChemInnovation, CA). For Gi agonist mode assays, percentage activity is calculated using the following formula: % Activity=100%×(1−(mean RLU of test sample−mean RLU of MAX control)/(mean RLU of vehicle control−mean RLU of MAX control)).
The same human 5-HT1B receptor functional agonism assay as described above was used in a separate experiment.

mice [1] = details: cited from earlier work
rats = details: cited from earlier work
humans = details: cited from earlier work
[2] = system: female mice exposed to stress and sodium nitroprusside (SNP); test: Stress plus sodium nitroprusside (SNP)-induced migraine mice model, von Frey facial withdrawal score; assay type: in vivo, C57BL/6j mice
Experimental: To evaluate the prophylactic and acute/abortive treatment effects of single administration of 5-OH-DMT to female mice exposed to stress and sodium nitroprusside (SNP) as a model of stress-primed migraine pain.
C57BL/6j mice (7-8 weeks, female) were acclimated for 1 week prior to the experiment. Mice were kept in groups of 4-5 animals per cage in a housing room with temperature maintained at 21-23° C. and 40-70% relative humidity, on a 12/12 h light:dark cycle. Chow and water were available ad libitum except during testing. […] On Day 10, von Frey testing was conducted again to confirm that mechanical withdrawal scores were similar across naïve and stress-exposed mice. Stress-exposed animals were randomized to treatment groups based on body weight and facial mechanical withdrawal score. Then, each animal was administered a 1st intraperitoneal (i.p.) injection of 5-OH-DMT (dissolved in 0.9% sterile saline and administered at 3, 10 or 30 mg/kg in a volume of 10 ml/kg) or vehicle.
On Day 11, at 24 h following the 1st injection, vehicle or 0.1 mg/kg sodium nitroprusside (SNP) was given i.p. and facial mechanical withdrawal scores were assessed 3 hours later to confirm establishment of a stress+SNP-induced hypersensitive state in Day 10 vehicle-treated animals (Groups 2-6) or, in Day 10 test article-treated […] (Groups 7-9), assess the prophylactic effect of compound administration. On Day 12, at 23 hours after vehicle or SNP injection, each animal was administered a 2nd i.p. injection of vehicle or 5-OH-DMT or sumatriptan (acute treatment positive control animals received vehicle on Day 10). One hour later, facial withdrawal scores were assessed to evaluate acute effects of treatments (Groups 2-6) or durability of prophylactic effects (Groups 7-9).
Mice were allowed to acclimate to the testing cage for 60 minutes each day before the test. To assess pain-like behaviors induced by noxious mechanical stimulation applied on the vibrissal pad (orofacial area), the mouse was placed in a small cage with a metal mesh ceiling and a wood bottom (10 cm×5 cm×5 cm). The semiparametric scoring system used to evaluate the response of the animal to the mechanical stimulation was described in detail by Vos et al. (1994). Mechanical stimulation delivered by a von Frey hair with the bending force of 0.07 g was applied bilaterally to the vibrissal pad. […] The summated score of these 8 trials was counted as the animal's response score. […]

mice [3] = details: cited from earlier work; remark: listed apart in the source

T1 sequence (P28222 whole entry): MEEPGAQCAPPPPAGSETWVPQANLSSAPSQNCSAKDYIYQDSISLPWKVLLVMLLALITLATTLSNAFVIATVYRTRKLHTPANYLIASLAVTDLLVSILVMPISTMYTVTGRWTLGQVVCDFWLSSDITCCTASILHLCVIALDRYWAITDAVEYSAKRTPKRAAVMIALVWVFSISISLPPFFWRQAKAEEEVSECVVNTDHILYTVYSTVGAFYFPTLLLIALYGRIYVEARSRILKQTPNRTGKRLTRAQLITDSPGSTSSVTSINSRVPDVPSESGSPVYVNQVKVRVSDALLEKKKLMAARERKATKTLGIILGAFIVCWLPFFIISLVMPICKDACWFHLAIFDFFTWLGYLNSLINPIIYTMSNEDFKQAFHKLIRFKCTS

NCCc1c[nH]c2ccc(O)cc12 [5-HT, serotonin, reference compound]
Curve Top (% activation) (Human 5-HT1B receptor; Study #1): 100.22%
Curve Top (% activation) (Human 5-HT1B receptor; Study #2): 107.54%
agonist activity at human 5-HT1B receptors (Human 5-HT1B receptor; first experiment (Study #1)): full agonist activity
agonist activity at human 5-HT1B receptors (Human 5-HT1B receptor; second experiment (Study #2)): full agonist activity

COc1ccc2[nH]cc(CCN(C)C)c2c1 [5-MeO-DMT, 5-methoxy-N,N-dimethyltryptamine]
head twitch response in mice (mice [1]; indicative of in vivo 5-HT2A receptor activation): induces the head twitch response
dose eliciting mouse head-twitch response (mice [1]; mice, i.p. or s.c.): ≥ 10 mg/kg
acute analgesic effects (rats): exhibited acute analgesic effects
time of initial effects (humans; insufflation of 10 mg): 3 to 4 min
time of termination of effects (humans; insufflation of 10 mg): 60 to 70 min
dose range with psychoactive effects (humans; intravenous): 0.25 to 3.1 mg
dose with psychoactive effects (humans; oral, after pretreatment with a monoamine oxidase inhibitor (e.g., harmaline)): 10 to 25 mg
dose with psychoactive effects (humans; oral, encapsulated): 30 mg
dose range with psychoactive effects (humans; smoked): 6 to 30 mg
dose with psychoactive effects (humans; sublingual): ~10 mg

CN(C)CCc1c[nH]c2ccc(O)cc12 [5-OH-DMT, 5-hydroxy-N,N-dimethyltryptamine]
facial hypersensitivity vs vehicle (G2), prophylactic treatment ([2]; 30 mg/kg i.p. on Day 10, 24 h before SNP, tested Day 11, 3 h after SNP (G9)): significantly reduced facial hypersensitivity
facial hypersensitivity vs vehicle (G2), durability of prophylactic effect ([2]; 30 mg/kg i.p. on Day 10, tested Day 12 (G9)): significantly reduced facial hypersensitivity
facial hypersensitivity vs vehicle (G2), acute treatment ([2]; 30 mg/kg i.p. on Day 12, tested 1 h after injection #2 (G6)): significantly reduced facial hypersensitivity
pEC50 (Human 5-HT1B receptor): ≥ 9.00
Emax (Human 5-HT1B receptor; Study #1, read-out: Maximal activation (%)): 104%
Curve Top (% activation) (Human 5-HT1B receptor; Study #2): 100.41%
agonist activity at human 5-HT1B receptors (Human 5-HT1B receptor; first experiment (Study #1)): full agonist activity
Emax (Human 5-HT1B receptor; read-out: Maximal activation (%), Study #2): 96.7%
agonist activity at human 5-HT1B receptors (Human 5-HT1B receptor; second experiment (Study #2)): full agonist activity
head twitch response ED50 (mice [1]; mice, subcutaneous): 15 mg/kg
acute anti-inflammatory and analgesic effects (mice [3]): exhibited acute anti-inflammatory and analgesic effects
duration of short-lived aftereffects (humans; insufflation of 40 mg): up to 90 minutes
time of initial effects (humans; insufflation of 40 mg): 5 min

CNS(=O)(=O)Cc1ccc2[nH]cc(CCN(C)C)c2c1 [sumatriptan, reference compound]
facial hypersensitivity vs vehicle (G2), acute treatment ([2]; sumatriptan 1 mg/kg i.p. on Day 12, tested 1 h after injection #2 (G3)): significantly reduced facial hypersensitivity
